According to ChEMBL document CHEMBL1124518, “Nonsteroidal cardiotonics. 2. The inotropic activity of linear, tricyclic 5-6-5 fused heterocycles” (1989):

Legend:
[1] = organism: Rattus norvegicus; assay: Effective dose required to produce an increase in dP/dt5 by 1500 mmHg/s in rats; type: functional
[2] = organism: Felis catus; assay: Effective dose required to produce an increase in dP/dt5 by 1500 mmHg/s in cats; type: functional
[3] = test system: Rattus norvegicus; assay: Maximum increase in dP/dt when administered intravenously in rats at 3 mg/kg dose.; type: functional; conditions: route intravenous
[4] = test system: Rattus norvegicus; assay: Maximum increase in dP/dt when administered intravenously in rats at 0.1 mg/kg dose.; type: functional; conditions: route intravenous
[5] = test system: Canis familiaris; assay: Time after which maximum increase in contractility was observed when administered orally in conscious dogs at 1 mg/kg; type: functional, Canis lupus familiaris; conditions: route oral
[6] = test system: Canis familiaris; assay: Amount of time during which increase in administered orally in conscious dogs at 1 mg/kg; type: functional, Canis lupus familiaris; conditions: route oral
[7] = organism: Canis familiaris; assay: Effective dose required to produce an increase in dP/dt5 by 1500 mmHg/s in dogs; type: functional, Canis lupus familiaris
[8] = test system: Canis familiaris; assay: Maximum increase in dP/dt when administered intravenously in dogs at 1 mg/kg dose.; type: functional, Canis lupus familiaris; conditions: route intravenous
[9] = test system: Felis catus; assay: Maximum increase in dP/dt when administered intravenously in cats at 0.03 mg/kg dose.; type: functional; conditions: route intravenous
[10] = test system: Canis familiaris; assay: Maximum increase in dP/dt60 when administered orally in dogs at dose 1 mg/kg; type: functional, Canis lupus familiaris; conditions: route oral
[11] = test system: Canis familiaris; assay: Maximum increase in dP/dt when administered intravenously in dogs at 0.1 mg/kg.; type: functional, Canis lupus familiaris; conditions: route intravenous
[12] = test system: Felis catus; assay: Maximum increase in dP/dt when administered intravenously in cats at 0.3 mg/kg.; type: functional; conditions: route intravenous
[13] = test system: Rattus norvegicus; assay: Maximum increase in dP/dt when administered intravenously in rats at 1 mg/kg dose.; type: functional; design: unit not given here; conditions: route intravenous
[14] = test system: Felis catus; assay: Maximum increase in dP/dt when administered intravenously in cats at 3 mg/kg dose.; type: functional; conditions: route intravenous
[15] = test system: Rattus norvegicus; assay: Maximum increase in dP/dt when administered intravenously in rats at 10 mg/kg dose.; type: functional; design: unit not given here; conditions: route intravenous
[16] = test system: Rattus norvegicus; assay: Maximum increase in dP/dt when administered intravenously in rats at […] dose.; type: functional
[17] = test system: Rattus norvegicus; assay: Maximum increase in dP/dt when administered intravenously in rats Value in parenthesis denotes dose at which test performed; type: functional

Structure (SMILES)	ED1.5 [1] [mg/kg]	ED1.5 [2] [mg/kg]	also measured
CC1(C)C(=O)Nc2cc3[nH]c(-c4cncnc4)nc3cc21	0.045	0.02	Max [3]: 3.1 mHg s-1
COc1ccc(-c2nc3cc4c(cc3[nH]2)C(C)(C)C(=O)N4)cc1	>3	–	–
CC1(C)C(=O)Nc2cc3[nH]c(-c4ccncc4)nc3cc21 [ADIBENDAN]	0.01	0.01	Max [4]: 3.7 mmHg s-1; Time [5]: 45 min; Duration [6]: > 6 h; ED1.5 [7]: 0.2 mg/kg; Max [8]: 2 mHg s-1
CC1(C)C(=O)Nc2cc3[nH]c(S)nc3cc21	0.55	0.06	Max [3]: 3.5 mHg s-1
CC1(C)C(=O)Nc2cc3[nH]c(-c4cc5ccccc5[nH]4)nc3cc21	>3	–	–
CC1(C)C(=O)Nc2cc3[nH]c(-c4ccnc5ccccc45)nc3cc21	2	–	Max [3]: 1.8 mHg s-1
C/C=C/c1nc2cc3c(cc2[nH]1)C(C)(C)C(=O)N3	>3	–	–
COc1cc(S(C)(=O)=O)ccc1-c1nc2cc3c(cc2[nH]1)C(C)(C)C(=O)N3	2	–	Max [3]: 1.8 mHg s-1
CC1(C)C(=O)Nc2cc3nc(O)oc3cc21	>3	–	–
CC1(C)C(=O)Nc2cc3[nH]c(-c4ccnnc4)nc3cc21	0.04	0.01	Time [5]: 150 min; Duration [6]: 5 h; Max [9]: 2.4 mmHg s-1; Max [10]: 2.3 mmHg s-1; ED1.5 [7]: 0.035 mg/kg; Max [11]: 2.6 mmHg s-1
CCCc1nc2cc3c(cc2[nH]1)C(C)(C)C(=O)N3	0.17	0.12	Max [12]: 2 mmHg s-1; Max [13]: 2.5
CCCn1c(O)nc2cc3[nH]c(-c4ccncc4)nc3cc21	1	–	Max [3]: 1.6 mHg s-1
CN1C(=O)C(C)(C)c2cc3[nH]c(-c4ccncc4)nc3cc21	>3	–	–
Cn1c(O)nc2cc3[nH]c(O)nc3cc21	>3	–	–
CCCc1nc2cc3nc(O)oc3cc2[nH]1	>3	–	–
CC1(C)C(=O)Nc2cc3[nH]c(-c4nc[nH]n4)nc3cc21	0.1	0.02	Max [3]: 3.1 mHg s-1
CC1(C)C(=O)Nc2cc3[nH]c(-c4ccccc4)nc3cc21	0.37	0.15	Duration [6]: 0 h; Max [14]: 3 mmHg s-1; Max [15]: 4.2
CC1(C)C(=O)Nc2cc3[nH]c(-c4ccc(O)cc4)nc3cc21	>3	–	–
COc1cc([S+](C)[O-])ccc1-c1nc2cc3c(cc2[nH]1)C(C)(C)C(=O)N3 (stereo unspecified)	>3	–	–
CC1(C)C(=O)Nc2cc3[nH]c(-c4ccnnc4)cc3cc21	–	0.01	–
Oc1nc2cc3[nH]c(-c4ccncc4)nc3cc2s1	0.2	–	–
Cc1nc2cc3nc(O)oc3cc2[nH]1	>3	–	–
CC1(C)C(=O)Nc2cc3[nH]c(O)cc3cc21	0.11	–	Max [16]: 2 mmHg s-1
CC1(C)C(=O)Nc2cc3[nH]c(-c4cnc5ccccc5c4)nc3cc21	>3	–	–
CC1(C)C(=O)Nc2cc3[nH]nnc3cc21	0.18	–	Max [17]: 2.6 mmHg s-1
